Results: patent publication US4652549A, “Cardiac anti-hypertrophic agents” (Merck & Co., Inc., priority 1985, dated 1987)

Test system: cardiac hypertrophy
Experiment: 7-day continuous infusion, reversing cardiac hypertrophy (heart weight)
Assay type: in vivo
Details: 30 pmole per kg per minute
Description: Heart Weight (grams H2 O per 100 grams tissue)

## Arg-Arg-Ser-Ser-Cys-Phe-Gly-Gly-Arg-Ile-Asp-Arg-Ile-Gly-Ala-Gln-Ser-Gly-Leu-Gly-Cys-Asn-Ser-Phe-Arg-Tyr (RRSSCFGGRIDRIGAQSGLGCNSFRY; printed: Arg-Arg-Ser-Ser-Cys-Phe-Gly-Gly-Arg-Ile-Asp-Arg-Ile-Gly-Ala-Gln-Ser-Gly-Leu-Gly-Cys-Asn-Ser-Phe-Arg-Tyr) [PEPTIDE OF EXAMPLE 5]
NORMAL group, n = 22
  Heart Weight: 0.45 + 0.02 grams H2 O per 100 grams tissu
First group (heading not given, presumably hypertrophic animals), n = 23, statistically significant at p less than 0.05
  Heart Weight: 0.70 + 0.03 grams H2 O per 100 grams tissu
